The structures appear in SMILES notation.

The target in data set [1] is T1, enzyme FAAH (Fatty Acid Amido Hydrolase) (Mus musculus, UniProt O08914).
T1 construct: The membrane homogenates are prepared extemporaneously by homogenizing the tissues with a Polytron machine; from tissue; host or cells: mouse brain (minus cerebellum) membrane homogenate
T1 sequence (O08914 1-579): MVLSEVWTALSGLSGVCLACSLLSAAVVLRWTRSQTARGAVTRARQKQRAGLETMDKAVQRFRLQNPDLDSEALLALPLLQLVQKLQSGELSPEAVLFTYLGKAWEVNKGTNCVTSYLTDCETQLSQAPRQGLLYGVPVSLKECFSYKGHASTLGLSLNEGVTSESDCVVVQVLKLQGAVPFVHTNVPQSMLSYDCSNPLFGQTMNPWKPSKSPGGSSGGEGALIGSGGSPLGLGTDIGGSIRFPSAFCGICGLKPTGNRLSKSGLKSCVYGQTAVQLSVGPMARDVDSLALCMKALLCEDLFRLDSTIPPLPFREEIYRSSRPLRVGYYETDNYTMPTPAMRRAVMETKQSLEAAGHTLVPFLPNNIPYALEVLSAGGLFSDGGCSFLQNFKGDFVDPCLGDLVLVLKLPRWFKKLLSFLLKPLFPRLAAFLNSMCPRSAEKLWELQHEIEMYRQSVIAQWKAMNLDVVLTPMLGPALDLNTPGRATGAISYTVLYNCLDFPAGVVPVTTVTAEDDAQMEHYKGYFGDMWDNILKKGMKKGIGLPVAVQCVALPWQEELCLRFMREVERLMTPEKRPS
Kind of data set: radioenzymatic test of FAAH inhibition (hydrolysis of anandamide [ethanolamine 1-3H], mouse brain membrane homogenates). Conditions: anandamide 10 μM, 15 minutes at 25° C., read-out: IC50 (concentration inhibiting 50% of the control enzymatic activity of FAAH). The data set is classed as biochemical. As for the experimental part: The compounds of the invention were subjected to pharmacological tests to determine their inhibitory effect on the enzyme FAAH (Fatty Acid Amido Hydrolase).
Thus, mouse brains (minus the cerebellum) are removed and stored at −80° C. The membrane homogenates are prepared extemporaneously by homogenizing the tissues with a Polytron machine in 10 mM Tris-HCl buffer (pH 8) containing 150 mM NaCl and 1 mM EDTA. The enzymatic reaction is then performed in 70 μl of buffer containing fatty-acid-free bovine serum albumin (1 mg/ml). The various test compounds at different concentrations, anandamide [ethanolamine 1-^3H] (specific activity of 15-20 Ci/mmol) diluted to 10 μM with cold anandamide, and the membrane preparation (400 μg of thawed tissue per test) are successively added. After 15 minutes at 25° C., the enzymatic reaction is quenched by adding 140 μL of chloroform/methanol (2:1). The mixture is stirred for 10 minutes and then centrifuged for 15 minutes at 3500×g. An aliquot (30 μL) of the aqueous phase containing the ethanolamine [1-^3H] is counted by liquid scintillation.

The next data set has as its system male OF1 mice. Briefly: test of analgesia: abdominal stretching induced by PBQ (phenylbenzoquinone) i.p. The class given is in vivo. The settings on record: 1 mg/kg p.o. at 2 hours, PBQ 2 mg/kg i.p. The protocol: It is thus seen that the compounds according to the invention have inhibitory activity on the enzyme FAAH. The in vivo activity of the compounds of the invention was evaluated in a test of analgesia.
Thus, the intraperitoneal (i.p.) administration of PBQ (phenylbenzoquinone, 2 mg/kg in a 0.9% sodium chloride solution containing 5% ethanol) to male OF1 mice weighing 25 to 30 g causes abdominal stretching, on average 30 twists or contractions in the period from 5 to 15 minutes after injection. The test compounds are administered orally as a 0.5% suspension in Tween 80, 60 minutes or 120 minutes before the administration of PBQ. Under these conditions, the most powerful compounds of the invention reduce the number of stretches induced by PBQ by 35 to 70%, in a dosage range of between 1 and 30 mg/kg.

What is called melting point is the temperature, or range, at which the solid turns liquid. With `CNC(=O)COC(=O)N1CCCN(c2ccc(-c3ccc(OC(F)(F)F)cc3)cn2)CC1` [Compound 103, 2-(methylamino)-2-oxoethyl 4-(5-{4-[(trifluoromethyl)oxy]phenyl}-2-pyridyl)-1,4-diazepane-1-carboxylate], the melting point was in the range of 191 to 193 °C.
In the case of `CCOc1ccc(-c2ccc(N3CCN(C(=O)OCC(=O)NC)CC3)cc2)cc1` [Compound 43], the IC50 in data set [1] worked out at 0.044 µM.
`CNC(=O)COC(=O)N1CCN(c2ccc(-c3ccc(Cl)cc3)cc2)CC1` [Compound 34]: the IC50 in data set [1] worked out at 0.02 µM.
The compound `CNC(=O)COC(=O)N1CCN(c2ccc(-c3cccc(C(F)(F)F)c3)cn2)CC1` [Compound 76, 2-(methylamino)-2-oxoethyl 4-{5-[3-(trifluoromethyl)phenyl]-2-pyridyl}-1-piperazinecarboxylate] had a melting point of 158 to 160 °C. The IC50 in data set [1] was determined as 0.29 µM. Moreover, the “Reduction of the number of stretches (%)” value with male OF1 mice is given as −47 (a) %.
For `CNC(=O)COC(=O)N1CCN(c2ccc(-c3ccc(OC(F)(F)F)cc3)cc2)CC1` [Compound 44, 2-(methylamino)-2-oxoethyl 4-{4′-[(trifluoromethyl)oxy]-4-biphenyl}-1-piperazinecarboxylate] the same measures were 187 to 189 °C, 0.007 µM and −53 (a) %.
Turning to `CNC(=O)COC(=O)N1CCN(c2ccc(-c3ccc(C(F)(F)F)cc3)cn2)CC1` [Compound 79, 2-(methylamino)-2-oxoethyl 4-{5-[4-(trifluoromethyl)phenyl]-2-pyridyl}-1-piperazinecarboxylate], the melting point fell in the range of 206 to 209 °C.
Still for that read-out and setting: under `Cc1ccc(-c2ccc(Cl)cc2)cn1` [Compound 75] stands 203 to 206 °C; under `NC(=O)COC(=O)N1CCN(c2ccc(-c3cccc(C(F)(F)F)c3)nc2)CC1` [Compound 86, 2-amino-2-oxoethyl 4-{6-[3-(trifluoromethyl)phenyl]-3-pyridyl}-1-piperazinecarboxylate], 155 to 157 °C.
Turning to `CNC(=O)COC(=O)N1CCN(c2ccc(-c3ccc(OC(F)(F)F)cc3)cn2)CC1` [Compound 83, 2-(methylamino)-2-oxoethyl 4-(5-{4-[(trifluoromethyl)oxy]phenyl}-2-pyridyl)-1-piperazinecarboxylate], the melting point was in the range of 188 to 190 °C. Further, the IC50 in data set [1] was determined as 0.012 µM.
Turning to `Cc1cc(F)cc2c1OCCC2` [Compound 15], the melting point lay in the range of 189 to 190 °C.
Consider `Cc1ccc(-c2ccc(Cl)cc2)cn1` [Compound 98], for which the melting point fell in the range of 204 to 206 °C.
`CNC(=O)COC(=O)N1CCN(c2ccc(-c3cccc(C(F)(F)F)c3)cc2)CC1` [Compound 37, 2-(methylamino)-2-oxoethyl 4-[3′-(trifluoromethyl)-4-biphenylyl]-1-piperazinecarboxylate] returned a melting point of 129 to 130 °C. Moreover, in data set [1], the IC50 came to 0.19 µM. Moreover, the “Reduction of the number of stretches (%)” value with male OF1 mice is given as −57 (a) %.
In the case of `CNC(=O)COC(=O)N1CCN(c2ccc(-c3cccc(C(F)(F)F)c3)nn2)CC1` [Compound 87, 2-(methylamino)-2-oxoethyl 4-{6-[3-(trifluoromethyl)phenyl]-3-pyridazinyl}-1-piperazinecarboxylate], the melting point was in the range of 151 to 153 °C.
With `Cc1ccc(-c2ccc([N+](=O)[O-])cc2)cc1` [Compound 36], the melting point lay within 197 to 198 °C.
With `CNC(=O)COC(=O)N1CCN(c2ccc(CC(C)C)nc2)CC1` [Compound 66, 2-(methylamino)-2-oxoethyl 4-[6-(2-methylpropyl)-3-pyridyl]-1-piperazinecarboxylate], the melting point lay within 87 to 89 °C.
Same read-out and setting: the value for `CNC(=O)COC(=O)N1CCN(c2ccc(CC(C)C)cn2)CC1` [Compound 63, 2-(methylamino)-2-oxoethyl 4-[5-(2-methylpropyl)-2-pyridyl]-1-piperazinecarboxylate] was 127 to 129 °C; that for `CNC(=O)COC(=O)N1CCN(c2ccc(-c3cccc(C(F)(F)F)c3)nc2)CC1` [Compound 85, 2-(methylamino)-2-oxoethyl 4-{6-[3-(trifluoromethyl)phenyl]-3-pyridyl}-1-piperazinecarboxylate] was 146 to 150 °C.
